# Read-outs that look alike come from different tables or passages of the source.
# How the values were obtained:
# Format in all cases: biochemical
# [1] = molecular target: CDK-2 enzyme, complexed with cyclin A (Homo sapiens, UniProt P24941); assay: CDK2 enzyme inhibition assay (33P phosphorylation of peptide […], filter plate); settings: CDK-2/cyclin A, 0.1 mM ATP, 40 min at 30° C.
# Experimental: (§1) The assay mixture containing the inhibitor and CDK-2 enzyme, complexed with cyclin A (0.4 U/ml) was mixed together in a microtiter plate in a final volume of 50 μl and incubated for 40 min at 30° C. The assay mixture contained 0.1 mM unlabeled ATP, 0.01 μCi/μl ^33P-γ-ATP, 0.03 mM peptide, 0.1 mg/ml BSA, 7.5 mM magnesium acetate, 50 mM HEPES-NaOH, pH 7.5. The reaction was stopped by adding 50 μl of 50 mM phosphoric acid. 90 μl of the mixture were transferred to a pre-wetted 96-well Multiscreen MAPHNOB filtration plate (Millipore) and filtered on a vacuum manifold. […] The filtration plate was dried for 10 min at 65° C., scintillant added and phosphorylated peptide quantified in a scintillation counter (Trilux, PerkinElmer)
# HEPES is N-[2-Hydroxyethyl]piperazine-N′-[2-ethanesulfonic acid] BSA is bovine serum albumin.
# [2] = molecular target: T1, GST-Chk1 enzyme (Homo sapiens, UniProt O14757); assay: Chk1 kinase inhibition assay (33P phosphorylation of Chktide, filter plate); settings: 0.01 mM ATP, 11 nM GST-Chk1, 40 minutes at 30° C.
# T1 sequence (O14757 1-476): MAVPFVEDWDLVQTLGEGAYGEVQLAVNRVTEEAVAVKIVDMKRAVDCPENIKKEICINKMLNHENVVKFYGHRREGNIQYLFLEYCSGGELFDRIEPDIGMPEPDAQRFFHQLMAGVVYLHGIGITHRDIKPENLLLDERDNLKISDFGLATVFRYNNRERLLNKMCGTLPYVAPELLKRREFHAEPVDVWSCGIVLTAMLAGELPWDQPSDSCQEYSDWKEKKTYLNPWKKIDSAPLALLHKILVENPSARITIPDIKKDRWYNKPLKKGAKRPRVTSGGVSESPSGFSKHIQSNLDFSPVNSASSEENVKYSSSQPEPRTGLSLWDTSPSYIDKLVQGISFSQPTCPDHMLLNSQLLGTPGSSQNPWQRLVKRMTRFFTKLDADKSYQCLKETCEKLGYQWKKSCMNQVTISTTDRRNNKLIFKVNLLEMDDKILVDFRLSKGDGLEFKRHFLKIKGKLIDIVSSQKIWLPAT
# Experimental: The assay mixture containing the inhibitor and Chk1 enzyme was mixed together in a microtiter plate in a final volume of 50 μl and incubated for 40 minutes at 30° C.
# The reaction was stopped by adding 50 μl of 50 mM phosphoric acid. 90 μl of the mixture was transferred to a pre-wetted 96-well Multiscreen MAPHNOB filtration plate (Millipore) and filtered on a vacuum manifold. […] The filtration plate was dried for 10 min at 65° C., scintillant added and phosphorylated peptide quantified in a scintillation counter (Trilux, PerkinElmer)
# [3] = molecular target: T2, PDK1 enzyme (Homo sapiens, UniProt O15530); assay: PDK1 kinase inhibition assay (33P phosphorylation of synthetic peptide, filter plate); settings: 0.01 mM ATP, 60 min at 30° C.
# T2 sequence (O15530 1-556): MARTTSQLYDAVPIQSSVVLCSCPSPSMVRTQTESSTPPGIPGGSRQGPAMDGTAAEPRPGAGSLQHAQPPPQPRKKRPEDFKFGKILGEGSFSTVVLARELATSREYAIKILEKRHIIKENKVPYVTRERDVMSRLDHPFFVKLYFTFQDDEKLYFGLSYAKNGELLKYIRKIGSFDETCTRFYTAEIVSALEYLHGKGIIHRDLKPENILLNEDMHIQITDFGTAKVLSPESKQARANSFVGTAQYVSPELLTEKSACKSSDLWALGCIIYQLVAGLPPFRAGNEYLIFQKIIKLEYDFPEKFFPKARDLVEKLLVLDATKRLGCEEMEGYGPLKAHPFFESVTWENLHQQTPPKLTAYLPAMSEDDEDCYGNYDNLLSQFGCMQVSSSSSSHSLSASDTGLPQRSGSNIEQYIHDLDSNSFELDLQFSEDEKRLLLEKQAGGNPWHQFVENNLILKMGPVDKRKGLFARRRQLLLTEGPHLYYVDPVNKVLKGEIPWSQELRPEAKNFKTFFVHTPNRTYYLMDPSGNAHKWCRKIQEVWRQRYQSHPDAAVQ
# Experimental: as §1, with “and PDK1 enzyme” for “and CDK-2 enzyme, complexed with cyclin A (0.4 U/ml)”, “for 60” for “for 40”, “contained 0.01” for “contained 0.1”, “^33P-γ-ATP, 0.075” for “^33P-γ-ATP, 0.03”, “acetate, 0.05M Tris.HCl,” for “acetate, 50 mM HEPES-NaOH,”, “pH 7.5, 0.5% 2-mercaptoethanol.” for “pH 7.5.”
SMILES,IC50 [1] [µM],IC50 ([2]; read-out: Chk1 IC50) [µM],IC50 ([3]; read-out: PDK1 IC50) [µM],IC50 ([2]; Chk1 IC50(μM)) [µM],IC50 ([3]; PDK1 IC50(μM)) [µM]
CC(C)c1cnn2c(Nc3ccc(S(=O)(=O)N(C)C)cc3)cc(N[C@H]3CC[C@H](O)CC3)nc12 [Example 101],0.024,> 200,3.81,–,–
CCc1cnn2c(Nc3ccc(S(C)(=O)=O)cc3)ccnc12 [Example 47],0.727,> 200,> 200,–,–
CCc1cnn2c(Nc3ccc(S(C)(=O)=O)cc3)cc(OCC(C)C)nc12 [Example 44],0.179,> 200,79.1,–,–
CN(C)S(=O)(=O)c1cccc(Nc2cc(Cl)nc3c(Br)cnn23)c1 [Example 93],0.572,> 200,> 200,–,–
CC(C)c1cnn2c(Nc3ccc(S(C)(=O)=O)nc3)cc(Cl)nc12 [Example 84],0.298,> 200,> 200,–,–
CCNc1cc(Nc2ccc(S(C)(=O)=O)cc2)n2ncc(C(C)C)c2n1 [Example 56],0.85,> 200,45.3,–,–
CC(C)c1cnn2c(Nc3ccc(S(=O)(=O)N(C)C)cc3)cc(OC3CCCC3)nc12 [Example 54],1.31,> 200,> 200,–,–
CC(C)c1cnn2c(Nc3ccc(S(=O)(=O)N(C)C)cc3)cc(NCCCN3CCOCC3)nc12 [Example 102],0.965,> 200,> 200,–,–
COc1ccc(CNc2cc(-c3ccsc3)nc3ccnn23)cc1 [Example 8],7.55,> 200,> 200,–,–
CC(C)c1cnn2c(Nc3ccc(S(C)(=O)=O)cc3)ccnc12 [Example 38],0.313,> 200,> 200,–,–
CC(C)c1cnn2c(Nc3ccc(S(=O)(=O)N(C)C)cc3)cc(N3CCCC(CO)C3)nc12 (centres unmarked) [Example 49],0.387,> 200,> 200,–,–
Cc1cccc(-c2cc(Nc3ccc(S(=O)(=O)Nc4nccs4)cc3)n3nccc3n2)c1 [Example 17],3.17,> 200,31.6,–,–
CN(C)S(=O)(=O)c1ccc(Nc2cc(N[C@@H]3CCCC[C@@H]3N)nc3c(Br)cnn23)cc1 [Example 138],0.565,0.97,> 50,–,–
CC(C)c1cnn2c(Nc3ccc(S(=O)(=O)N(C)C)cc3)cc(N3CCCC3CO)nc12 (centres unmarked) [Example 104],0.177,> 200,> 200,–,–
CN(C)S(=O)(=O)c1ccc(Nc2cc(Cl)nc3c(C4CC4)cnn23)cc1 [Example 127],0.005,> 200,29.3,–,–
CN(C)S(=O)(=O)c1ccc(Nc2cc(N[C@H]3CC[C@H](N)CC3)nc3c(-c4ccsc4)cnn23)cc1 [Example 154],1.42,0.63,> 200,–,–
CNS(=O)(=O)c1ccc(Nc2cc(N[C@H]3CC[C@H](N)CC3)nc3c(C(C)C)cnn23)cc1 [Example 61],0.032,6.63,11,–,–
CC(C)c1cnn2c(Nc3ccc(S(=O)(=O)N(C)CCO)cc3)cc(N3CCC(O)CC3)nc12 [Example 48],1.46,> 200,> 200,–,–
O=S(=O)(c1ccc(Nc2ccnc3ccnn23)cc1)N1CCOCC1 [Example 16],3.35,> 200,> 200,–,–
CC(C)c1cnn2c(Nc3ccc(S(=O)(=O)N(C)C)cc3)cc(NC3CCCC(N)C3)nc12 (centres unmarked) [Example 113],2.05,2.2,3.12,–,–
CC(C)c1cnn2c(Nc3ccc(S(=O)(=O)N(C)C)cc3)cc(N[C@H]3CC[C@H](NS(C)(=O)=O)CC3)nc12 [Example 126],0.073,> 200,34.4,–,–
CC(C)c1cnn2c(Nc3ccc(S(=O)(=O)N(C)C)cc3)cc(N3CCCC(C(=O)O)C3)nc12 (centres unmarked) [Example 82],4.23,> 200,> 200,–,–
CC(C)c1cnn2c(Nc3ccc(S(=O)(=O)N(C)C)cc3)cc(N3CCC[C@H]3CN)nc12 [Example 97],7.81,4.75,> 200,–,–
N[C@H]1CC[C@@H](Nc2cc(Nc3ccc(S(=O)(=O)N4CCCC4)cc3)n3ncc(Br)c3n2)CC1 [Example 178],0.15,0.07,2.58,–,–
CC(C)c1cnn2c(Nc3ccc(S(=O)(=O)N(C)C)cc3)cc(N(C)CCCN(C)C)nc12 [Example 74],7.27,18.6,> 200,–,–
CC(C)c1cnn2c(Nc3ccc(S(N)(=O)=O)cc3)cc(Cl)nc12 [Example 32],0.062,> 200,> 200,–,–
CC(C)c1cnn2c(Nc3ccc(S(=O)(=O)N(C)C)cc3)cc(NCCCN3CCN(C)CC3)nc12 [Example 124],22.1,> 200,> 200,–,–
CN(C)S(=O)(=O)c1ccc(Nc2cc(N[C@H]3CC[C@H](N)CC3)nc3c(-c4ccccc4)cnn23)cc1 [Example 163],10,1.53,6,–,–
CC(C)c1cnn2c(Nc3ccc(S(=O)(=O)N(C)C)cc3)cc(N3CCN(CC4CCN(C)CC4)CC3)nc12 [Example 109],10.3,15.2,> 200,–,–
CS(=O)(=O)c1ccc(Nc2cc(Cl)nc3ccnn23)cc1 [Example 15],–,–,–,> 200,> 200

# Source: US20070179161A1, “Pyrazolopyrimidine compounds and their use in medicine” (VERNALIS (CAMBRIDGE) LIMITED., priority 2003, published 2007)
